Laboratory results from PubChem BioAssay (NCI).
“And” between values parts separate entries of the source, which are not always exact repeats. Equal entries are not always repeated.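 These data come from cells grown in 96-well plates and exposed to compound for 48 hours at five concentrations. GI50 marks 50% less growth. TGI: concentration producing complete growth inhibition.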

How the values were obtained:
Assay in all cases: DTP human tumour cell line panel, 48 h
CAKI-1 renal = test system: CAKI-1 renal
SNB-75 CNS = test system: SNB-75 CNS
NCI/ADR-RES ovarian = test system: NCI/ADR-RES ovarian
MCF7 breast = test system: MCF7 breast
COLO 205 colon = test system: COLO 205 colon
T-47D breast = test system: T-47D breast
SF-539 CNS = test system: SF-539 CNS
SF-268 CNS = test system: SF-268 CNS
OVCAR-4 ovarian = test system: OVCAR-4 ovarian
NCI-H522 lung = test system: NCI-H522 lung
786-0 renal = test system: 786-0 renal

Structure (SMILES)	TGI (CAKI-1 renal)	TGI (SNB-75 CNS)	TGI (NCI/ADR-RES ovarian)	TGI (MCF7 breast)	TGI (COLO 205 colon)	TGI (T-47D breast)	TGI (SF-539 CNS)	TGI (SF-268 CNS)	TGI (OVCAR-4 ovarian)	TGI (NCI-H522 lung)	TGI (786-0 renal)	GI50 (SNB-75 CNS)	GI50 (NCI/ADR-RES ovarian)	GI50 (MCF7 breast)	GI50 (COLO 205 colon)	GI50 (T-47D breast)	GI50 (SF-539 CNS)	GI50 (SF-268 CNS)	GI50 (OVCAR-4 ovarian)
CC(C)(C)OC(=O)N(O)CCCn1cnc2c(NC3CC3)ncnc21	> 100 µM	> 100 µM	> 100 µM	> 100 µM	> 100 µM	> 100 µM	> 100 µM	> 100 µM	> 100 µM	> 100 µM	> 100 µM	–	–	–	–	–	–	–	–
CC/C(Cl)=N\OC(=O)Nc1ccc(F)c(Cl)c1	9.55 µM	26.2 µM	42.7 µM	20.1 µM	8.16 µM	21.3 µM	37.3 µM	43.4 µM	31.1 µM	3.44 µM	18 µM	–	–	–	–	–	–	–	–
COc1ccc(C[C@H]2COC(=O)[C@@H]2Cc2ccc(Br)cc2)cc1OC	> 84 µM	85.1 µM	> 100 µM	> 65.4 µM	39.5 µM	> 100 µM	> 100 µM	> 31.6 µM	> 100 µM	> 71.1 µM	> 100 µM	–	–	–	–	–	–	–	–
CC(=Nc1ccc(Cl)cc1)c1ccncc1	> 100 µM	> 100 µM	> 100 µM	> 100 µM	> 100 µM	> 100 µM	77.9 µM	> 100 µM	> 100 µM	> 100 µM	> 100 µM	–	–	–	–	–	–	–	–
COc1ccc(/C(C)=C2\CCCN(Cc3ccccc3)C2)cc1	58.4 µM	73.1 µM	57.5 µM	37.8 µM	32.5 µM	77 µM	35.2 µM	40.6 µM	> 100 µM	26.4 µM	33.9 µM	–	–	–	–	–	–	–	–
CC1(C)CC(=O)c2c(-c3ccc(Cl)cc3)c(C#N)c(=S)n(C3OC(CO)C(O)C(O)C3O)c2C1 (centres undefined)	> 100 µM	98.4 µM	> 100 µM	> 100 µM	92.8 µM	89.6 µM	> 100 µM	> 100 µM	> 100 µM	> 100 µM	> 100 µM	–	–	–	–	–	–	–	–
OC1C2CCCCN2C[C@@H](O)[C@H]1O (some centres undefined)	> 100 µM	> 100 µM	> 100 µM	> 100 µM	> 100 µM	> 100 µM	> 100 µM	> 100 µM	> 100 µM	> 100 µM	> 100 µM	–	–	–	–	–	–	–	–
COc1cccc(CCn2c(N)c(-c3cc(Cl)cc(Cl)c3)c3ccc([N+](=O)[O-])cc3c2=O)c1	41.7 µM	> 100 µM	> 55 µM	89.2 µM	4.05 µM	> 24.8 µM	> 100 µM	> 100 µM	> 100 µM	> 26.6 µM	> 100 µM	–	–	–	–	–	–	–	–
COC1(OC)CCN(Cc2ccccc2)C1=O	13 µM	30.6 µM	55.3 µM	25.3 µM	12.5 µM	18.8 µM	28.6 µM	> 52.8 µM	30.6 µM	> 100 µM	15.7 µM	–	–	–	–	–	–	–	–
Cn1c2ncccc2n2c(=O)cc(O)cc12	> 100 µM	> 100 µM	> 100 µM	> 100 µM	> 100 µM	95.7 µM	> 100 µM	> 100 µM	> 100 µM	> 100 µM	> 100 µM	–	–	–	–	–	–	–	–
COC(=O)CN1Cc2cc(C)cc(c2O)CN(CC(=O)OC)Cc2cc(C)cc(c2O)CN(CC(=O)OC)Cc2cc(C)cc(c2O)CN(CC(=O)OC)Cc2cc(C)cc(c2O)C1	50 µM	50 µM and > 100 µM	50 µM and 64 µM	50 µM and > 100 µM	50 µM and > 100 µM	50 µM and > 100 µM	50 µM and > 100 µM	50 µM and > 100 µM	50 µM and > 100 µM	> 100 µM	50 µM and > 100 µM	42.5 µM	21.9 µM	39.9 µM	28.6 µM	36.4 µM	37.3 µM	> 100 µM	33.1 µM
NC(=O)C1=C(O)[C@@]2(O)C(=O)C3=C(O)c4c(O)cccc4CC3C[C@H]2CC1=O (some centres undefined)	26.7 µM	8.35 µM	13.7 µM	> 49.9 µM	3.17 µM	23.8 µM	13.4 µM	17.8 µM	> 85.1 µM	7.72 µM	17.6 µM	–	–	–	–	–	–	–	–
N#Cc1c(C#N)c(SSc2c(C#N)c(C#N)c(N)n2-c2cccc3ccccc23)n(-c2cccc3ccccc23)c1N	29.5 µM	38.7 µM	> 76.8 µM	> 100 µM	10.6 µM	5.47 µM	35.7 µM	33.2 µM	41.9 µM	3.15 µM	4.26 µM	–	–	–	–	–	–	–	–
CC1(C)N=C(C(N)=O)c2ncn(Cc3ccccc3)c2N1	> 100 µM	> 100 µM	> 100 µM	> 100 µM	> 100 µM	> 100 µM	> 100 µM	> 100 µM	> 100 µM	> 100 µM	> 100 µM	–	–	–	–	–	–	–	–
Cc1ccc(NC(=O)c2cccc(OP(=O)(Nc3ccc(C)cc3)Nc3ccc(C)cc3)c2)cc1	> 100 µM	30.6 µM	> 100 µM	> 100 µM	5.27 µM	> 100 µM	> 100 µM	> 100 µM	61.9 µM	12 µM	> 100 µM	–	–	–	–	–	–	–	–
O=C1c2ccccc2C(=O)c2c1oc1cc(O)c(Cl)cc21	32.5 µM	10.4 µM	45.4 µM	25.2 µM	3.27 µM	48.6 µM	16.1 µM	31.9 µM	23.4 µM	26.9 µM	20.9 µM	–	–	–	–	–	–	–	–
